Data on eleven compounds can be found in ChEMBL document CHEMBL4613239, “α-Glucosidase and Protein Tyrosine Phosphatase 1B Inhibitors from Malbranchea circinata” (J Nat Prod, 2020).

As a reminder, the IC50 is the point on the concentration scale where inhibition reaches its midpoint. Low values mean greater potency in that assay, high ones weaker potency in that assay.

Calls of active or inactive are those of the source. The rule behind the calls is not given here.

The nature of experiment [1]: Inhibition of rat intestinal rat alpha-glucosidase.
Experiment [2] in a line: Inhibition of Saccharomyces cerevisiae alpha-glucosidase using pNPG as substrate preincubated for 10 mins followed by substrate addition after 20 mins.
Experiment [3] concerns Mus musculus. Nature of the experiment: Induction of hypo glycemic activity in ICR mouse assessed as reduction in postprandial glucose level at 10 mg/kg, po pretreated for 30 mins followed by sucrose treatment and measured after 30 to 120 mins. The format is functional, organism-based.
Experiment [4] addresses T1, Tyrosine-protein phosphatase non-receptor type 1 (Homo sapiens, UniProt P18031).
T1 sequence (P18031 whole entry): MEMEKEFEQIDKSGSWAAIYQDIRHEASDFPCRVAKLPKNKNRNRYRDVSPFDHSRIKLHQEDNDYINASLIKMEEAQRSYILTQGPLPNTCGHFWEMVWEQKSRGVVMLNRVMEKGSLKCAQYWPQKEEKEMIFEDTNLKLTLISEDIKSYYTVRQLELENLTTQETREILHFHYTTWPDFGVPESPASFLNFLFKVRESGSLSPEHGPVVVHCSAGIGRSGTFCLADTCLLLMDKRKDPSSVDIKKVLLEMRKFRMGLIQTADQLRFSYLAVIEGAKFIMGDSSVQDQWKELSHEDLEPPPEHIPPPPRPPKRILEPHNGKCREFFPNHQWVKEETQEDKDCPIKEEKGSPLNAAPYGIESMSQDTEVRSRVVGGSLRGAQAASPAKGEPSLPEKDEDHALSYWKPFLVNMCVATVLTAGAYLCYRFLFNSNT
Nature of the experiment: (§1) Inhibition of human PTP1B expressed in Escherichia coli BL21 (DE3) cells using PNPP as substate preincubated for 5 mins followed by substrate additon and measured after 15 mins.

The target of experiment [5] is T2, Tyrosine-protein phosphatase non-receptor type 1 (Homo sapiens) (UniProt P18031).
T2 sequence (whole entry): T1 sequence (P18031 whole entry)
Described as §1.

Take `C[C@H]1O[C@H](O[C@H]2[C@H](O)[C@@H](O)[C@@H](O[C@H]3[C@H](O)[C@@H](O)C(O)O[C@@H]3CO)O[C@@H]2CO)[C@H](O)[C@@H](O)[C@@H]1N[C@H]1C=C(CO)[C@@H](O)[C@H](O)[C@H]1O` (stereo partly specified) [ACARBOSE]: the IC50 in experiment [1] is 151 µM; in experiment [2], 586 µM. Moreover, the outcome in experiment [3] was Active.

As for `CC1(C)c2[nH]c3cc(Cl)c(Cl)cc3c2C[C@@]23CN4CCC[C@]4(C[C@@H]12)C(=O)N3`, the IC50 in experiment [4] was 14.5 µM; in experiment [1], 459 µM; in experiment [2], 71.3 µM. Also, the result in experiment [3] was Active. On to `O=C1Nc2ccccc2-c2nc3ccccc3c(=O)n2-c2ccccc21`, for which the inhibition entry in experiment [5] was “Active”. In experiment [2], this compound returned an IC50 of 144 µM.

With `Cc1cc(O)c2c(c1)C(=O)c1cc(O[C@H]3O[C@H](CO)[C@@H](O)[C@H]3O)cc(O)c1C2=O`, the inhibition result in experiment [5] was “Active”. Further, in experiment [2], 261 µM corresponded to half-maximal inhibition (IC50). `CC(C)=CCc1ccc(O)c2c(=O)c3c(O)cc(C)c(O)c3oc12` gave an IC50 in experiment [4] of 13.9 µM.

As to `C=CC(C)(C)[C@@]12C[C@@H]3C(=O)N4[C@H](C[C@@]5(C(C)(C)C=C)c6ccccc6N[C@@H]45)C(=O)N3[C@@H]1Nc1ccccc12`, the IC50 in experiment [4] was determined as 15.3 µM; in experiment [1] it was 743 µM; in experiment [2] it was 57.4 µM. Take `CC(=O)O[C@H]1[C@@H](O)[C@@H](Oc2cccc3c2C(=O)c2c(O)cc(C)cc2C3=O)O[C@@H]1CO`: the inhibition entry in experiment [5] was “Active”.

For `COC1CCC(=O)c2c(O)c(-c3cc(O)c4c(c3O)C(=O)CCC4OC)cc(O)c21` (stereo unspecified), the IC50 in experiment [4] amounted to 10.9 µM.

With `CC(=O)O[C@H]1[C@@H](Oc2cc(O)c3c(c2)C(=O)c2cc(C)cc(O)c2C3=O)O[C@H](CO)[C@H]1OC(C)=O`, the inhibition entry in experiment [5] is “Active”. As to `O=C1Nc2ccccc2-c2nc3ccccc3c(=O)n2-c2c(O)cccc21`, the inhibition result in experiment [5] is “Active”. Moreover, the IC50 in experiment [2] turned out to be 117 µM. For the compound `CC(=O)OC[C@H]1O[C@H](Oc2cc(O)c3c(c2)C(=O)c2cc(C)cc(O)c2C3=O)[C@H](OC(C)=O)[C@@H]1OC(C)=O`, the inhibition entry in experiment [5] is “Active”.
